The target of one test is DNA ligase (Staphylococcus aureus, UniProt Q9AIU7). In words: Inhibition of Staphylococcus aureus LigA.
Test [1] is described as follows: Inhibition of wild type Streptococcus pneumoniae LigA.
Test [2] can be described thus: Inhibition of Haemophilus influenzae LigA.
Test [3] is described as follows: Inhibition of Enterococcus faecalis LigA.
A short description of test [4]: Inhibition of Streptococcus pneumoniae LigA L75F mutant.
Test [5] deals with Streptococcus pneumoniae. The experiment in a line: Antibacterial activity against Streptococcus pneumoniae ARC548. Type of test: functional.
For test [6], the system named is Streptococcus pneumoniae. In words: Selectivity ratio of IC50 for Streptococcus pneumoniae LigA L75F mutant to IC50 for wild type Streptococcus pneumoniae LigA.

Molecules are shown by their SMILES. ≈ marks a conversion by molar mass, not a printed value.

Sequence of DNA ligase (Q9AIU7 whole entry): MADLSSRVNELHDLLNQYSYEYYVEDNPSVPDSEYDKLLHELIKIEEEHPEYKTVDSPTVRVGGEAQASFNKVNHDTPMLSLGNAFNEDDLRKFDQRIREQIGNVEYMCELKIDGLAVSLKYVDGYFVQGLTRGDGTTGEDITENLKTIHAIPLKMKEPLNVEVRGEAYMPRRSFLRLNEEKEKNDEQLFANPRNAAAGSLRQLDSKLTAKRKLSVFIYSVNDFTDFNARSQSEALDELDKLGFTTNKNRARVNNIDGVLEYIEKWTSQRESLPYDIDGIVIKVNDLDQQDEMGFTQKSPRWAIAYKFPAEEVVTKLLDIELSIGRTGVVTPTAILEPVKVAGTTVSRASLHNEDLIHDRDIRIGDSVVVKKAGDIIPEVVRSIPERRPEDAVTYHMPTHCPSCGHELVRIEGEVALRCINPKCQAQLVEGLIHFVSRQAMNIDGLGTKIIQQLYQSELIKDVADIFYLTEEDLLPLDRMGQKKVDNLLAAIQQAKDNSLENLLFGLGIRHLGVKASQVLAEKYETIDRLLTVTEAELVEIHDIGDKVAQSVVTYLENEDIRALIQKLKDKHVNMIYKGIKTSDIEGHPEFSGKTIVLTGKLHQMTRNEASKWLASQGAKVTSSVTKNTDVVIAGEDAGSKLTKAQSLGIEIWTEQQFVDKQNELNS

With `CCCNc1ncc(C(N)=O)c2sc(Br)cc12`, the IC50 on DNA ligase was 180 µM; in test [1], 150 µM; in test [2], 200 µM; in test [3] it was 130 µM.
With `Cc1c(Br)sc2c(C(N)=O)cnc(N)c12`, the IC50 in test [4] is 37 µM; on DNA ligase, 7.1 µM; in test [1], 3.1 µM; in test [2], more than 200 µM; in test [3], 8.1 µM.
Take `NC(=O)c1cnc(N)c2c(Br)csc12`: the IC50 against DNA ligase was 39 µM; in test [1], 36 µM; in test [2] it was more than 200 µM; in test [3], 130 µM.
As to `Nc1nc(OC2CCCC2)nc2c1ncn2[C@@H]1O[C@H](CO)[C@@H](O)[C@H]1O`, the half-inhibitory concentration (IC50) was 33 µM in test [4], 0.43 µM on DNA ligase, 0.21 µM in test [1] and 0.51 µM in test [2]. Moreover, it took 8 µg/mL (≈ 22.8 µM) to inhibit growth with Streptococcus pneumoniae [5] (MIC).
For `NC(=O)c1cnc(NCCO)c2cc(Br)sc12`, the 50% inhibitory concentration (IC50) (on DNA ligase; in test [1]; in test [2]; in test [3]) was more than 200 µM throughout.
As for `NC(=O)c1cc2c(N)ncc(C(N)=O)c2s1`, the IC50 on DNA ligase is 15 µM; in test [1] it was 9.4 µM; in test [2], more than 200 µM; in test [3] it was 34 µM.
With `NC(=O)c1cnc(N)c2c(-c3ccn[nH]3)csc12`, the concentration for half-maximal inhibition (IC50) against DNA ligase was more than 200 µM; in test [1], 100 µM; in test [2], more than 200 µM; in test [3], more than 200 µM.
Regarding `NC(=O)c1cnc(N)c2cc(-c3ccn[nH]3)sc12`, the IC50 is 36 µM against DNA ligase, 29 µM in test [1], more than 200 µM in test [2] and 100 µM in test [3].
For `NC(=O)c1cnc(N)c2c(C(N)=O)csc12`, in that order: 69 µM, 52 µM, more than 200 µM and more than 200 µM.
On to `CCNC(=O)c1cc2c(N)ncc(C(N)=O)c2s1`, for which the IC50 against DNA ligase was 75 µM; in test [1], 140 µM; in test [2] it was more than 200 µM; in test [3] it was more than 200 µM.
For `NC(=O)c1cnc(Nc2ccccc2)c2cc(Br)sc12`, the IC50 against DNA ligase was 150 µM; in test [1], more than 200 µM; in test [2], 160 µM; in test [3] it was 160 µM.
`NC(=O)c1cnc(N)c2cc(Br)sc12`: the IC50 amounted to 48 µM in test [4]; 48 µM against DNA ligase; 21 µM in test [1]; 160 µM in test [2]; 77 µM in test [3]. The Ratio IC50 with Streptococcus pneumoniae [6] stood at 2. The MIC in the test with Streptococcus pneumoniae [5] is more than 64 µg/mL.
With `Cc1cc2c(N)ncc(C(N)=O)c2s1`, the IC50 is more than 200 µM at DNA ligase, 200 µM in test [1], more than 200 µM in test [2] and more than 200 µM in test [3].
For `CCOC(=O)c1cc2c(N)ncc(C(N)=O)c2s1`, the half-maximal inhibitory concentration (IC50) against DNA ligase was 8.9 µM; in test [1] it was 9.4 µM; in test [2], more than 200 µM; in test [3], 74 µM.
The like results for `NC(=O)c1cnc(N)c2ccsc12` were, in that order, more than 200 µM, 25 µM, more than 200 µM and more than 200 µM.
The like results for `Cc1csc2c(C(N)=O)cnc(N)c12` were, in that order, more than 200 µM, more than 140 µM, more than 200 µM and more than 200 µM.

Values taken from ChEMBL document CHEMBL3098126, “Identification through structure-based methods of a bacterial NAD(+)-dependent DNA ligase inhibitor that avoids known resistance mutations” (Bioorg Med Chem Lett, 2014).
